Results reported in patent publication US20230167127A1, “COMPOUNDS AND THEIR USE IN THE TREATMENT OF BACTERIAL INFECTION” (Hoffmann-La Roche Inc., priority 2020, published 2023).

These compounds were tested on Escherichia coli ATCC 25922 (assay: 50% growth inhibitory concentration (IC50) determination, Iso-Sensitest broth dilution). Conditions: Escherichia coli, ATCC25922, 16 h, strain Escherichia coli ATCC 25922; 10-point broth dilution, optical density at 600 nm over 16 h; read-out: Escherichia coli growth inhibition IC50.
Assay type: cell-based
Procedure, shortened: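 Growth was tracked as optical density at 600 nm every 20 minutes for 16 h at 35±2° C. Compounds from DMSO stocks were serially diluted twofold over 10 points (e.g. 50–0.097 μM final) in Iso-Sensitest broth. Inhibition computed in log-phase growth to give IC50.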

IC50	Structure (SMILES)
1380 nM	N#Cc1nccc2c1CC(CNCCC1CN(c3ccc4c(n3)NC(=O)CO4)C(=O)O1)C2N (racemic) [Example 133, rac-5,6-trans-5-amino-6-[[2-[2-oxo-3-(3-oxo-4H-pyrido[3,2-b][1,4]oxazin-6-yl)-1,3-oxazolidin-5-yl]ethylamino]methyl]-6,7-dihydro-5H-cyclopenta[c]pyridine-1-carbonitrile; formic acid]
119 nM	NC1c2cccc(Cl)c2CC1NCCCC1CN(c2cnc3c(n2)NC(=O)CO3)C(=O)O1 (racemic) [Example 245, 6-[2-oxo-5-[3-[[rac-1,2-trans-1-amino-4-chloro-2,3-dihydro-1H-inden-2-yl]amino]propyl]-1,3-oxazolidin-3-yl]-4H-pyrazino[2,3-b][1,4]oxazin-3-one]
148 nM	NC1c2cc(OCC3(N)CC3)cc(Cl)c2CC1CNCCC1CN(c2ccc3c(n2)NC(=O)CO3)C(=O)O1 (racemic) [Example 273, 6-[2-Oxo-5-[2-[[rac-1,2-trans-1-amino-6-[(1-aminocyclopropyl)methoxy]-4-chloro-2,3-dihydro-1H-inden-2-yl]methylamino]ethyl]-1,3-oxazolidin-3-yl]-4H-pyrido[3,2-b][1,4]oxazin-3-one; formic acid]
180 nM	CNC(=O)COc1cc(F)c2c(c1)CC(CNCCC1CN(c3cnc4c(n3)NC(=O)CO4)C(=O)O1)C2 (stereo not shown) [Example 310, 2-[[7-fluoro-2-[[2-[2-oxo-3-(3-oxo-4H-pyrazino[2,3-b][1,4]oxazin-6-yl)-1,3-oxazolidin-5-yl]ethylamino]methyl]-2,3-dihydro-1H-inden-5-yl]oxy]-N-methylacetamide; formic acid]
< 97.7 nM	NC1(COc2ccc3c(c2Cl)CC(NCCCC2CN(c4ccc5c(n4)NC(=O)CO5)C(=O)O2)C3)CC1 (stereo not shown) [Example 119, 6-[5-[3-[[5-[(1-aminocyclopropyl)methoxy]-4-chloro-2,3-dihydro-1H-inden-2-yl]amino]propyl]-2-oxo-1,3-oxazolidin-3-yl]-4H-pyrido[3,2-b][1,4]oxazin-3-one; formic acid]
261 nM	NC1c2cccc(Cl)c2CC1CNCCC1CN(c2ncc3c(n2)NC(=O)CO3)C(=O)O1 (racemic) [Example 290, 2-[5-[2-[(rac-1,2-trans-1-amino-4-chloro-2,3-dihydro-1H-inden-2-yl)methylamino]ethyl]-2-oxo-1,3-oxazolidin-3-yl]-8H-pyrimido[5,4-b][1,4]oxazin-7-one]
< 97.7 nM	Cc1ncc(C#N)c2c1CC(CNCCC1CN(c3cnc4c(n3)NC(=O)CO4)C(=O)O1)C2 (stereo not shown) [Example 291, 1-methyl-6-[[2-[2-oxo-3-(3-oxo-4H-pyrazino[2,3-b][1,4]oxazin-6-yl)-1,3-oxazolidin-5-yl]ethylamino]methyl]-6,7-dihydro-5H-cyclopenta[c]pyridine-4-carbonitrile;2,2,2-trifluoroacetic acid]
< 97.7 nM	Cc1ncc(Cl)c2c1CC(CNCCC1CN(c3ccc4c(n3)NC(=O)CO4)C(=O)O1)C2N (racemic) [Example 262, 6-[5-[2-[(rac-5,6-trans-5-Amino-4-chloro-1-methyl-6,7-dihydro-5H-cyclopenta[c]pyridin-6-yl)methylamino]ethyl]-2-oxo-1,3-oxazolidin-3-yl]-4H-pyrido[3,2-b][1,4]oxazin-3-one; formic acid]
168 nM	Cc1nccc2c1CC(CNCCC1CN(c3ccc4c(n3)NC(=O)CO4)C(=O)O1)C2 (stereo not shown) [Example 88, 6-[5-[2-[(1-methyl-6,7-dihydro-5H-cyclopenta[c]pyridin-6-yl)methylamino]ethyl]-2-oxo-1,3-oxazolidin-3-yl]-4H-pyrido[3,2-b][1,4]oxazin-3-one]

Further lines, the compound ahead of its results:

Structure (SMILES)	IC50
CC(N)COc1ccc2c(c1C#N)CC(CNCCC1CN(c3ccc4c(n3)NC(=O)CO4)C(=O)O1)C2 (stereo not shown) [Example 134, 5-(2-aminopropoxy)-2-[[2-[2-oxo-3-(3-oxo-4H-pyrido[3,2-b][1,4]oxazin-6-yl)-1,3-oxazolidin-5-yl]ethylamino]methyl]-2,3-dihydro-1H-indene-4-carbonitrile; formic acid]	114 nM
N#Cc1cc(OCc2cnc[nH]2)cc2c1CC(CNCCC1CN(c3cnc4c(n3)NC(=O)CO4)C(=O)O1)C2 (stereo not shown) [Example 406, 6-(1H-imidazol-5-ylmethoxy)-2-[[2-[2-oxo-3-(3-oxo-4H-pyrazino[2,3-b][1,4]oxazin-6-yl)-1,3-oxazolidin-5-yl]ethylamino]methyl]-2,3-dihydro-1H-indene-4-carbonitrile; formic acid]	139 nM
Cc1nc(OCC2(N)CC2)c(C)c2c1CC(CNCCC1CN(c3ccc4c(n3)NC(=O)CO4)C(=O)O1)C2 (stereo not shown) [Example 172, 6-[5-[2-[[3-[(1-aminocyclopropyl)methoxy]-1,4-dimethyl-6,7-dihydro-5H-cyclopenta[c]pyridin-6-yl]methylamino]ethyl]-2-oxo-1,3-oxazolidin-3-yl]-4H-pyrido[3,2-b][1,4]oxazin-3-one]	< 97.7 nM
Cc1nc(OCC2CC(=O)N(C)C2)c(C)c2c1CC(CNCCC1CN(c3ccc4c(n3)NC(=O)CO4)C(=O)O1)C2 (stereo not shown) [Example 103, 6-[5-[2-[[1,4-dimethyl-3-[(1-methyl-5-oxopyrrolidin-3-yl)methoxy]-6,7-dihydro-5H-cyclopenta[c]pyridin-6-yl]methylamino]ethyl]-2-oxo-1,3-oxazolidin-3-yl]-4H-pyrido[3,2-b][1,4]oxazin-3-one]	1690 nM
CC(C)(CC1CN(c2ccc3c(n2)NC(=O)CO3)C(=O)O1)NCC1Cc2cccc(C#N)c2C1 (stereo not shown) [Example 29, 2-[[[2-methyl-1-[2-oxo-3-(3-oxo-4H-pyrido[3,2-b][1,4]oxazin-6-yl)-1,3-oxazolidin-5-yl]propan-2-yl]amino]methyl]-2,3-dihydro-1H-indene-4-carbonitrile]	945 nM
N#Cc1cccc2c1CC(CNCCC1CN(c3ncc4c(n3)NC(=O)CO4)C(=O)O1)C2 (stereo not shown) [Example 289, 2-[[2-[2-oxo-3-(7-oxo-8H-pyrimido [5,4-b] [1,4]oxazin-2-yl)-1,3-oxazolidin-5-yl]ethylamino]methyl]-2,3-dihydro-1H-indene-4-carbonitrile]	< 97.7 nM
N#Cc1nccc2c1CC(CNCCC1CN(c3ccc4c(n3)NC(=O)CO4)C(=O)O1)C2 (stereo not shown) [Example 90, 6-[[2-[2-oxo-3-(3-oxo-4H-pyrido[3.2-b][1,4]oxazin-6-yl)-1,3-oxazolidin-5-yl]ethylamino]methyl]-6,7-dihydro-5H-cyclopenta[c]pyridine-1-carbonitrile; formic acid]	170 nM
N#Cc1ncc(F)c2c1CC(CNCCC1CN(c3ccc4c(n3)NC(=O)CO4)C(=O)O1)C2 (stereo not shown) [Example 37, 4-fluoro-6-[[2-[2-oxo-3-(3-oxo-4H-pyrido[3,2-b][1,4]oxazin-6-yl)-1,3-oxazolidin-5-yl]ethylamino]methyl]-6,7-dihydro-5H-cyclopenta[c]pyridine-1-carbonitrile; formic acid]	< 97.7 nM
N#Cc1cccc2c1CC(N1CCC(C3CN(c4cnc5c(n4)NC(=O)CO5)C(=O)O3)CC1)C2 (stereo not shown) [Example 349, 2-[4-[2-oxo-3-(3-oxo-4H-pyrazino[2,3-b][1,4]oxazin-6-yl)-1,3-oxazolidin-5-yl]piperidin-1-yl]-2,3-dihydro-1H-indene-4-carbonitrile]	< 97.7 nM
Cc1ncc(F)c2c1CC(CNCCC1(CN)CN(c3ccc4c(n3)NC(=O)CO4)C(=O)O1)C2 (stereo not shown) [Example 242, 6-[5-(Aminomethyl)-5-[2-[(4-fluoro-1-methyl-6,7-dihydro-5H-cyclopenta[c]pyridin-6-yl)methylamino]ethyl]-2-oxo-1,3-oxazolidin-3-yl]-4H-pyrido[3,2-b][1,4]oxazin-3-one]	778 nM
CNC(=O)COc1cc(F)c2c(c1)CC(CNCCC1CN(c3ccc4c(n3)NC(=O)CS4)C(=O)O1)C2 (stereo not shown) [Example 74, 2-[[7-fluoro-2-[[2-[2-oxo-3-(3-oxo-4H-pyrido[3,2-b][1,4]thiazin-6-yl)-1,3-oxazolidin-5-yl]ethylamino]methyl]-2,3-dihydro-1H-inden-5-yl]oxy]-N-methylacetamide: formic acid]	118 nM
Cc1ncc(F)c2c1CC(CN1CCC3(CN(c4ccc5c(n4)NC(=O)CO5)C(=O)O3)C(CO)C1)C2 (stereo not shown) [Example 277, 6-[8-[(4-fluoro-1-methyl-6,7-dihydro-5H-cyclopenta[c]pyridin-6-yl)methyl]-6-(hydroxymethyl)-2-oxo-1-oxa-3,8-diazaspiro[4.5]decan-3-yl]-4H-pyrido[3,2-b][1,4]oxazin-3-one]	628 nM
Cn1nnnc1COc1cc(C#N)c2c(c1)CC(CNCCC1CN(c3cnc4c(n3)NC(=O)CO4)C(=O)O1)C2 (stereo not shown) [Example 391, 6-[(1-methyltetrazol-5-yl)methoxy]-2-[[2-[2-oxo-3-(3-oxo-4H-pyrazino[2,3-b][1,4]oxazin-6-yl)-1,3-oxazolidin-5-yl]ethylamino]methyl]-2,3-dihydro-1H-indene-4-carbonitrile]	258 nM
CNC(=O)COc1cc(C)c2c(c1C)CC(CNCCC1CN(c3ccc4c(n3)NC(=O)CO4)C(=O)O1)C2 (stereo not shown) [Example 112, 2 2-[[4,7-dimethyl-2-[[2-[2-oxo-3-(3-oxo-4H-pyrido[3,2-b][1,4]oxazin-6-yl)-1,3-oxazolidin-5-yl]ethylamino]methyl]-2,3-dihydro-1H-inden-5-yl]oxy]-N-methylacetamide]	303 nM

Same assay, conditions: strain Escherichia coli ATCC 25922; 10-point broth dilution, optical density at 600 nm over 16 h; read-out: Escherichia coli growth inhibition IC50

IC50	Structure (SMILES)
321 nM	Cc1ncc(F)c2c1CC(NC(C)CCC1CN(c3cnc4c(n3)NC(=O)CO4)C(=O)O1)C2 (single isomer, unassigned; isomer b) [Example 334, 6-[5-[3-[(4-fluoro-1-methyl-6,7-dihydro-5H-cyclopenta[c]pyridin-6-yl)amino]butyl]-2-oxo-1,3-oxazolidin-3-yl-4H-pyrazino[2,3-b][1,4]oxazin-3-one, Isomer B]
156 nM	N#Cc1cccc2c1CC(CNC1CCC3C(C1)OC(=O)N3c1ccc3c(n1)NC(=O)CO3)C2 (racemic) [Example 31, 2-[[[rac-3a,7a-trans-6,7a-cis-2-oxo-3-(3-oxo-4H-pyrido[3,2-b][1,4]oxazin-6-yl)-3a,4,5,6,7,7a-hexahydro-1,3-benzoxazol-6-yl]amino]methyl]-2,3-dihydro-1H-indene-4-carbonitrile]
